US11542263B2 (NeuroCycle Therapeutics, Inc., priority 2018, dated 2023)
≈ marks a conversion by molar mass, not a printed value. Where two headings read alike, the source gives them in different places. One block for each molecule: values may come before it.

Legend:
Format in all cases: physicochemical
[1] = pKa measurement by pH metric method; details: protonated TPA023B; titrated pH 2 to pH 12, extrapolated to aqueous pKa
Procedure: 10 mg of TPA023B was used for the pKa measurement.
ISA Water (Ionic Strength Adjusted Water, 0.15 M KCl): Accurately weigh 5.591 g KCl into a 500 mL volumetric flask, dissolve the sample with water, add to volume and mix well. Cosolvent of 60% (v/v) DMSO. Dissolve 2.795 g potassium chloride in 100 mL distilled or deionised water and make up to 250 mL with analytical grade DMSO (Ionic strength adjusted DMSO solution).
Cosolvent of 80% (v/v) MeOH: Dissolve 2.795 g potassium chloride in 50 mL distilled or deionized water and make up to 250 mL with analytical grade MeOH (Ionic strength adjusted MeOH solution).
pKa Determination by pH Metric Method (with or without Co-Solvent):
About 1 mg of sample was weighed into a sample vial, about 1.5 mL of ISA water or 1.5 mL of co-solvent (80% MeOH or 60% DMSO) was added into the vial automatically. The sample solution pre-acidified to pH 2.0 with 0.5 M HCl by the instrument automatically, then titrated three times with base to get pKa value from pH 2 to pH 12, and then extrapolated to get aqueous pKa value. Using this method, the pKa of TPA023B was determined to be 2.19.

[2] = HPLC analysis of degradation of TPA023B with acids in acetone (salt screening)
Procedure: Salt screening via reaction crystallization was preliminarily conducted using five acids in four solvents or solvent mixtures. […] For p-toluenesulfonic acid, about 20 mg of TPA023B and about 1.1 molar equivalents of the corresponding acid were stirred in about 0.5 mL of each solvent. For controls, about 20 mg of TPA023B was stirred in about 0.5 mL of the corresponding solvent. The resulting mixture was heated to about 50° C. with continuous stirring for about 4 hrs and slowly cooled to about 20-25° C. overnight.
HPLC analysis was conducted on the acetone samples to determine the extent of degradation that occurred, if any.

[3] = Approximate solubility of TPA023B in organic solvents; details: thermodynamic from solid; for solubility at 4 h: 25 °C, RT; for solubility: 50° C.
Procedure: About 25 mg of compound (TPA023B) was added to a 2.0 mL vial containing 0.5 mL of each organic solvent in Table 14, which was then sealed. The mixtures were stirred-mixed at 800 rpm, RT (25° C.) for 4 hours. After that, if the compound was not completely dissolved in the solvent, the mixture was then stirred-mixed at 800 rpm, 50° C. overnight. If the final mixture was clear solution, the solution would be evaporated by vacuum drying oven at 35° C. and the resulted solid would be checked by XRPD. If the final mixture was slurry, the slurry would be centrifuged at 14000 rpm for 5 minutes and then the residues would be dried by vacuum drying oven at 35° C. and checked by XRPD.

[4] = Accelerated stability testing (HPLC assay and purity); details: for Assay (%): assay criterion 95%-105%
Procedure: The stability of Phosphate Polymorphic Form and Free Base Polymorphic Form A were evaluated under accelerated conditions.
Appropriately 2 mg of compounds were accurately weighed into a glass vial, then added diluents (ACN/water, 50/50) and sonicated for 2 minutes to dilute the target concentration of 0.2 mg/mL. The solution was equilibrated to room temperature and then the purity of the compounds was determined by HPLC.

[5] = Solubility in aqueous buffers and simulated fluids, 24 h, HPLC; details: for solubility at 24 h: 22.5 °C, thermodynamic from solid, ~20-25° C., read-out: Measured Conc. (solubility); for solubility at 24 h / Measured Conc. (solubility): ~24 h; for Measured Conc. (solubility): LOQ: 0.1 μg/mL
Procedure: About 2 mg of test article was added to a 1.5 mL vials which contained ˜1.0 mL of one medium listed in Table 7 and Table 8, which was then sealed. The mixtures were stirred at ˜20-25° C. for ˜24 hours. After that, the mixture was filtered by 0.45 μm filter membrane and then the supernatant was analyzed by HPLC.

[6] = Intrinsic dissolution rate in SGF; details: 37° C., 100 rpm, linear scope within 2 to 120 min
Procedure: About 100 mg of Free Base Polymorphic Form A or Phosphate Polymorphic Form A was weighed into the intrinsic dissolution apparatus and the sample compressed for 1 minute with a compression force of ˜4 MPa to form a compacted pellet within the stainless-steel die. All loose powder was removed from the surface of the die. The intrinsic dissolution shaft was connected with the stainless-steel die and tightened so only one surface of the pellet was exposed (surface area=0.496 cm^2). The shaft in the spindle was adjusted to ensure the exposed surface of the compacted tablet was ˜3.8 cm from the bottom of the vessel when lowered. The temperature of chamber water was set at 37° C.±0.5° C., the shaft rotation at 100 rpm and the sampling time points at 2, 5, 10, 15, 30, 45, 60, 120 min. SGF was used as dissolution medium (900 mL). At each time point, solution samples were filtered, and the supernatant was analyzed by HPLC-UV.

[7] = organic solvent or mixture, 1,4-Dioxane
[8] = organic solvent or mixture, THF
[9] = pH 3.0 citrate buffer (100 mM), initial pH 3.05
[10] = pH 4.5 citrate buffer (100 mM), initial pH 4.44
[11] = pH 7.4 PBS (50 mM), initial pH 7.40
[12] = pH 9.0 USP Buffer (50 mM), initial pH 8.94

pKa [1]: ~2.19
Purity (%) ([2]; control in acetone, 50° C. about 4 hrs): 99.33%
Purity (%) ([2]; with H2SO4 in acetone): 98.33%
Purity (%) ([2]; with H3PO4 in acetone): 98.88%
Purity (%) ([2]; with HCl in acetone): 98.61%
Purity (%) ([2]; with methane sulfonic acid in acetone): 98.71%
Purity (%) ([2]; with p-toluene sulfonic acid in acetone): 98.65%
solubility at 4 h [3, 7]: < 50 mg/mL
solubility at 4 h ([3]; organic solvent or mixture, DMF): > 50 mg/mL
solubility at 4 h ([3]; organic solvent or mixture, DMSO): > 50 mg/mL
solubility at 4 h [3, 8]: < 50 mg/mL
solubility ([3]; aqueous with cosolvent or surfactant or cyclodextrin, Acetone/H2O (1/1, v/v)): < 50 mg/mL
solubility ([3]; aqueous with cosolvent or surfactant or cyclodextrin, EtOH/H2O (1/1, v/v)): < 50 mg/mL
solubility [3, 7]: > 50 mg/mL
solubility ([3]; organic solvent or mixture, Acetone): < 50 mg/mL
solubility ([3]; organic solvent or mixture, Acetonitrile (ACN)): < 50 mg/mL
solubility ([3]; organic solvent or mixture, DCM): < 50 mg/mL
solubility ([3]; organic solvent or mixture, EtOAc): < 50 mg/mL
solubility ([3]; organic solvent or mixture, Ethanol): < 50 mg/mL
solubility ([3]; organic solvent or mixture, Heptane): < 50 mg/mL
solubility ([3]; organic solvent or mixture, Isopropanol): < 50 mg/mL
solubility ([3]; organic solvent or mixture, MEK): < 50 mg/mL
solubility ([3]; organic solvent or mixture, MTBE): < 50 mg/mL
solubility ([3]; organic solvent or mixture, Methanol): < 50 mg/mL
solubility [3, 8]: > 50 mg/mL
solubility ([3]; organic solvent or mixture, Toluene): < 50 mg/mL
solubility ([3]; water, H2O): < 50 mg/mL
Structure (SMILES): CC(C)(O)c1cnn2c(-c3ccc(F)c(-c4c(F)cccc4C#N)c3)cnc2n1 [TPA023B, 2′,6-difluoro-5′-[3-(1-hydroxy-1-methylethyl)-imidazo[1,2-b][1,2,4]triazin-7-yl]biphenyl-2-carbonitrile]

Purity (%) ([4]; 40° C./75% RH (open), 1 week): 98.64%
Assay (%) ([4]; 40° C./75% RH (open), 1 week): 102.35%
Purity (%) ([4]; 80° C. (open), 1 week): 98.62%
Assay (%) ([4]; 80° C. (open), 1 week): 101.60%
Purity (%) ([4]; Initial): 98.72%
Assay (%) ([4]; Initial): 105.51%
Purity (%) ([4]; Light, ~50 h): 98.60%
Assay (%) ([4]; Light, ~50 h): 104.28%
solubility at 24 h ([5]; pH 1.8, simulated gastric fluid, SGF, initial pH 1.80): 0.00138 mg/mL (≈ 0.00353 mM)
solubility at 24 h ([5]; simulated gastric fluid, pH 1.2 Hydrochloric Acid Buffer (50 mM), initial pH 1.17): 0.00977 mg/mL (≈ 0.025 mM)
solubility at 24 h ([5]; FaSSIF, initial pH 6.51): 0.00211 mg/mL (≈ 0.00539 mM)
solubility at 24 h ([5]; FeSSIF, initial pH 5.00): 0.00963 mg/mL (≈ 0.0246 mM)
solubility at 24 h ([5]; Purified water, initial pH 7.02, target 2 mg/mL): 0.00014 mg/mL (≈ 0.000358 mM)
pH value of supernatant ([5]; FaSSIF, initial pH 6.51): 6.50
pH value of supernatant ([5]; FeSSIF, initial pH 5.00): 5.02
pH value of supernatant ([5]; Purified water, initial pH 7.02): 8.73
pH value of supernatant ([5]; SGF, initial pH 1.80): 1.86
pH value of supernatant ([5]; pH 1.2 Hydrochloric Acid Buffer (50 mM), initial pH 1.17): 1.12
pH value of supernatant [5, 9]: 3.00
Measured Conc. (solubility) [5, 9]: <LOQ
pH value of supernatant [5, 10]: 4.45
Measured Conc. (solubility) [5, 10]: <LOQ
pH value of supernatant [5, 11]: 7.42
Measured Conc. (solubility) [5, 11]: <LOQ
pH value of supernatant [5, 12]: 8.98
Measured Conc. (solubility) [5, 12]: <LOQ
intrinsic dissolution rate [6]: 5×10^−5 mg cm^2 min-t
Structure (SMILES): CC(C)(O)c1cnn2c(-c3ccc(F)c(-c4c(F)cccc4C#N)c3)cnc2n1 [Free Base Polymorphic Form A, 2′,6-difluoro-5′-[3-(1-hydroxy-1-methylethyl)-imidazo[1,2-b][1,2,4]triazin-7-yl]biphenyl-2-carbonitrile]
